Structures are written as SMILES. pIC50: −log10 of the molar value.

Common to all, as to type: functional, organism-based
Assay [1] concerns Plasmodium falciparum. As to the kind of experiment: Antimalarial activity against Plasmodium falciparum 3D7 after 48 hrs by pLDH assay. Particulars: 3D7, 48 h.
Assay [2] deals with Plasmodium falciparum. The assay is described as follows: Antimalarial activity against chloroquine-resistant Plasmodium falciparum FcB1 after 72 hrs by pLDH assay. Particulars: FcB1, 72 h.
Assay [3] has as its system Plasmodium falciparum. The assay is described as follows: Antimalarial activity against chloroquine-resistant Plasmodium falciparum FcB1 after 48 hrs by pLDH assay. The following applies: FcB1, 48 h.
Assay [4] concerns Plasmodium falciparum. As to the kind of experiment: Antimalarial activity against Plasmodium falciparum 3D7 after 72 hrs by pLDH assay. The following applies: 3D7, 72 h.

Take `COc1ccc2nccc([C@@H](O)C3CC4CCN3CC4CC(=O)O[C@@H]3OC4O[C@]5(C)CCC6[C@H](C)CCC([C@H]3C)[C@@]46OO5)c2c1` (some centres not stated): the negative logarithm of the IC50 (pIC50) in the assay with Plasmodium falciparum [1] is 8.05; with Plasmodium falciparum [2], 7.99; in the assay with Plasmodium falciparum [3] it was 8.02; with Plasmodium falciparum [4], 7.98.

Take `C[C@@H]1CC[C@H]2[C@@H](C)C(=O)O[C@@H]3O[C@@]4(C)CC[C@@H]1[C@]32OO4` [ARTEMISININ]: the pIC50 in the assay on Plasmodium falciparum [1] is 7.31; in the assay on Plasmodium falciparum [2] it was 7.26; in the assay on Plasmodium falciparum [3], 7.30; in the assay with Plasmodium falciparum [4], 7.34.

As for `C=C[C@H]1CN2CC[C@H]1C[C@H]2[C@H](O)c1ccnc2ccc(OC)cc12` [QUININE], the pIC50 with Plasmodium falciparum [1] was 6.83; in the assay on Plasmodium falciparum [2] it was 7.12; with Plasmodium falciparum [3], 7.01; in the assay on Plasmodium falciparum [4], 7.13.

Values taken from ChEMBL document CHEMBL1145364, “A novel artemisinin-quinine hybrid with potent antimalarial activity” (Bioorg Med Chem Lett, 2007).
